# Results: patent US20210180138A1, “METHODS FOR PROGNOSIS AND TREATMENT OF SOLID TUMORS” (CUREWIZE HEALTH LTD., priority 2017, published 2021)
# How the values were obtained:
# [1] = test system: breast cancer (MCF7) cell line; assay: Cell viability, XTT tetrazolium colorimetric assay; format: cell-based; settings: 24 hours, 1 nM, 10 nM and 100 nM, vs DMSO control
# Method: (§1) FK866 is a potent NAMPT inhibitor that causes the depletion of intracellular NAD+ levels in the cell and ultimately induces apoptosis and cell death. To characterize the effect of FK866 on prostate cancer (PC-3), colon cancer (Caco-2) and breast cancer (MCF7) cell lines, the effects of FK866 on cell death were evaluated. Cells were either control cells, treated with DMSO only, or were treated for 24 hours with 1 nanomolar (nM), 10 nM and 100 nM of FK866, and cell viability was measured using an XTT tetrazolium colorimetric assay.
# [2] = test system: colon cancer (Caco-2) cell line; assay: Cell viability, XTT tetrazolium colorimetric assay; format: cell-based; settings: 24 hours, 1 nM, 10 nM and 100 nM, vs DMSO control
# Method: as §1
# [3] = test system: prostate cancer (PC-3) cell line; assay: Cell viability, XTT tetrazolium colorimetric assay; format: cell-based; settings: 24 hours, 1 nM, 10 nM and 100 nM, vs DMSO control
# Method: as §1
# [4] = test system: prostate cancer PC3 cell line; assay: In-vivo xenograft model, sensitivity to FK866 by miR-451 expression; design: species or system mice; settings: for change in tumor growth between non-treated and treated group: 15 mg/kg once a day for 5 days repeated weekly
# Method: The effect of miR-451 expression levels on efficacy of NAMPT inhibitor was evaluated in an in-vivo xenograft mouse model as in Example 4A. The sensitivity of each prostate cancer cell line (miR-451, antagomiR-451 and scramble miR control) to FK866 treatment was examined in vivo. Twenty mice were injected with each cell line and were divided into two groups: 10 mice were treated with FK866 (15 mg/kg) once a day for 5 days repeated weekly and 10 served as controls, in which no NAMPT inhibitor was injected. The volume of the tumors was measured daily and mice were treated with FK866 from the day all tumors were clinically evident. Treatment with the drug started from day 13 and within 5 days of treatment a change in tumor size was observed between the antagomiR-451 group treated with FK866 and the antagomiR-451 receiving no treatment (FIG. 5A).
# [5] = test system: miR-451; assay: miR-451 expression by RT-qPCR in stable transfected lines; format: cell-based
# Method: The effect of miR-451 expression level on prostate cancer (PC-3), and breast cancer (MCF7) cell line tumor cells was evaluated in-vitro. Stable lines of each malignancy expressing miR-451 mimic and antagomiR-451 were obtained and transfected as in example 1. miR-451 expression levels in each cell line were validated by quantitative Real Time PCR (RT-qPCR). Total RNA was isolated from 10^7 cells using Qiagen RNeasy isolation kit according to the manufacturer's instruction (Qiagen, Hilden, Germany). 100 ng RNA was converted to cDNA using universal cDNA synthesis kit (Exiqon, Vedbaek, Denmark). RT-qPCR for the miR-451 was performed using Locked-nucleic Acid (LNA™) primers sets (Exiqon, Vedbaek, Denmark). 5S Ribosomal RNA was used as a reference gene. The RT-qPCR reactions were performed in duplicates on the LightCycler 480 (Roche, Rotkreuz, Switzerland) apparatus. The results were expressed as relative expression using the delta Ct method.
# [6] = test system: MCF7 cells; assay: In-vivo xenograft model, tumor growth by miR-451 expression; settings: MCF7 xenograft in NSG mice; end of experiment; antagomiR-451 cells compared with miR-451 mimic
# Method: (§2) The effect of miR-451 expression levels on tumor cell growth was evaluated in an in-vivo xenograft mice model using MCF7 cells and PC3 cells. Ten million cells harboring antagomiR-451 and miR-451 mimic were injected subcutaneously into the right flanks of 6-8 weeks-old immunodeficient NSG (NOD scid gamma) mice. Ten mice were injected with the MCF7 antagomiR-451 cell line and 11 mice were injected with the miR-451 mimic line. Ten mice were injected with the PC3 antagomiR-451 cell line and the PC3 miR-451 mimic cell line and 8 with the scrambled miR control cell line. The volume of the tumors was measured daily from the day the tumors were clinically evident in all mice.
# [7] = test system: PC3 cells; assay: as above; settings: PC3 xenograft in NSG mice; end of experiment; antagomiR-451 cells compared with miR-451 mimic
# Method: as §2
# [8] = test system: miR-451; assay: miR expression after transient transfection with miR-451 mimic; format: cell-based; settings: PC-3, Caco-2, MCF7 cells transiently transfected, 200 pmol; compared to control cells transfected with scramble miR
# Method: (§3) A study was performed to determine if NAMPT is regulated by miR-451 in a representative cell line of each malignancy. Cells comprising prostate cancer (PC-3), colon cancer (Caco-2) and breast cancer (MCF7) cell lines were transiently transfected with a miR-451 mimic while “scrambled” miR-451 served as a control. The prostate cancer (PC-3), colon cancer (Caco-2), and breast cancer (MCF7) cells were obtained from ATCC and cultured according to ATCC growth recommendation. Two hundred pmol miR-451 mimic and 200 pmol scramble miR (IDT, Jerusalem, Israel) were transiently transfected by JETPRIME (Polyplus-transfection) into cells according to manufacturer's instructions.
# NAMPT protein expression was determined using FACS as follows: […]
# [9] = test system: NAMPT; assay: NAMPT protein expression by FACS in transfected cells; format: cell-based; settings: PC-3, Caco-2 and MCF7 cell lines; 48 hours after transfection; compared to control scramble-miR cells
# Method: as §3
# One to two million transfected cells were collected 48 hours after transfection and fixed using 500 μl BD phosflow fix buffer I (BD Biosciences, San Jose, Calif., USA) for 15 minutes. Then, pellets were washed twice using PBS and resuspended in 500 μl methanol. Samples were incubated for 2 hours in −20° C. […] The cells were analyzed on flow cytometer (FACSCalibur, Becton Dickinson, Le Pont-De-Claix, France) using BD CellQuest™ Pro software.
# FIG. 1 presents NAMPT protein expression level analyzed by FACS using a specific anti-NAMPT antibody in prostate cancer (PC-3), colon cancer (Caco-2) and breast cancer (MCF7) cell lines.
molecule,measurement,setting,value
O=C(/C=C/c1cccnc1)NCCCCC1CCN(C(=O)c2ccccc2)CC1 [FK866],cell viability,[1],gradual decrease in cell viability
same,cell viability,[2],gradual decrease in cell viability
same,cell viability,[3],gradual decrease in cell viability
same,time of treatment until change in tumor size observed vs no treatment,"[4]; PC3 antagomiR-451 group, treatment started from day 13, 15 mg/kg",≤ 5 days
same,change in tumor growth between non-treated and treated group,[4]; mice injected with PC3 antagomiR-451 cells,major change in tumor growth
same,change in tumor growth between non-treated and treated group,[4]; mice injected with PC3 miR-451 mimic cells,moderate to almost no change in tumor growth
same,change in tumor growth between non-treated and treated group,[4]; mice injected with PC3 scramble miR control cells,moderate to almost no change in tumor growth
"antagomiR-451: SEQ ID NO: 3 is the nucleotide sequence of antagomiR-451 (antisense AATGATCTGTAACGGTTT; listed as DNA, chemistry not given here)",decrease in miR-451 expression,"[5]; PC3 cells, compared to PC3 control cells",67%
same,tumor volume,[6],significant increase in tumor volume
same,tumor volume,[7],significant increase in tumor volume
"miR-451 mimic: SEQ ID NO: 1 is the nucleotide sequence of miR-451 mimic (AAACCGUUACCAUUACUGAGUU; listed as RNA, chemistry not given here)",increase in the expression levels of the miR,[8],3 fold
same,NAMPT protein expression level,[9],reduction in NAMPT expression
same,level in miR-451,"[5]; MCF7 cells, mimic compared with MCF7 cells transfected with antagomiR-451",twice as high
same,increase in miR-451 expression,"[5]; PC3 cells, compared with control (PC3 cells transfected with miR scramble)",tenfold increase
